# Source: patent US8957093B2, “N-biphenylmethylindole modulators of PPARG” (The Scripps Research Institute, priority 2011, dated 2015)
# Molecular target: GST-PPARG-LBD (Homo sapiens (Human), UniProt P37231)
# Test: Lanthascreen PPARG competitive binding assay (Invitrogen, TR-FRET)
# Conditions: Lanthascreen PPARG competitive binding; inc = incomplete curve; NA = not active
# Protocol: Lanthascreen PPARG Competitive Binding Assay (Invitrogen)
# The assay was performed according to manufacturer protocol. A mixture of […], 5 nM Tb-GST-antibody, 5 nM Fluormone Pan-PPAR Green, and serial dilutions of the experimental compound, beginning at 10 μM downwards, was added to wells of black 384-well low-volume plates (Greiner) to a total volume of 18 μL. All dilutions were made in TR-FRET assay buffer C. DMSO at 2% final concentration was used as a no-ligand control. Experiment was performed in triplicate, and incubated for 2 hours in the dark prior to assay read in Perkin Elmer ViewLux ultra HTS microplate reader. FRET signal was measured by excitation at 340 nm and emission at 520 nm for fluorescein and 490 nm for terbium. Fold change over DMSO was calculated using GraphPad Prism Software (La Jolla, Calif.) by calculating 520 nm/490 nm ratio. Graphs were plotted as fold change of FRET signal for compound treatment over DMSO-only control.
# Sequence of GST-PPARG-LBD (P37231 238-503): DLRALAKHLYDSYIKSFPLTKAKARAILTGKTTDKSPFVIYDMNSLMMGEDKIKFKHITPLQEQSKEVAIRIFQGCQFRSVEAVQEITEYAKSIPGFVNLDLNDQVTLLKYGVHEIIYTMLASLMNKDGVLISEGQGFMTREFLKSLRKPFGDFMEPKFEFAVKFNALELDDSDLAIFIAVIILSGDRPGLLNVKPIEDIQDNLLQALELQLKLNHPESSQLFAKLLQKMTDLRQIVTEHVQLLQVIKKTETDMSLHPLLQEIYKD
row,SMILES,IC50 (nM) Lantha
1,"Cc1c(C)n(Cc2ccc(-c3ccccc3C#N)cc2)c2ccc(C(=O)N[C@@H](C)c3ccccc3)cc12 [Example 291, (S)-1-((2′-cyano-[1,1′-biphenyl]-4-yl)methyl)-2,3-dimethyl-N-(1-phenylethyl)-1H-indole-5-carboxamide]",inc
2,"CCOc1cccc([C@H](C)NC(=O)c2ccc3c(c2)c(C)c(C)n3Cc2ccc(-c3ccccc3C#N)cc2)c1 [Example 280, (S)-1-((2′-cyano-[1,1′-biphenyl]-4-yl)methyl)-N-(1-(3-ethoxyphenyl)ethyl)-2,3-dimethyl-1H-indole-5-carboxamide]",inc
3,"Cc1c(C)n(Cc2ccc(-c3ccccc3C#N)cc2)c2ccc(C(=O)N[C@@H](C)c3ccc(OC(F)(F)F)cc3)cc12 [Example 279, (S)-1-((2′-cyano-[1,1′-biphenyl]-4-yl)methyl)-2,3-dimethyl-N-(1-(4-(trifluoromethoxy)phenyl)ethyl)-1H-indole-5-carboxamide]",inc

# Same assay, conditions: Lanthascreen PPARG competitive binding; inc = incomplete curve; NA = not active; read-out: IC50 (nM) Lantha
row,SMILES,IC50
1,"Cc1c(C)n(Cc2ccc(-c3ccccc3C(=O)NC3CC3)cc2)c2ccc(C(=O)N[C@@H](C)c3cccc(C(C)C)c3)cc12 [Example 305, (S)-1-((2′-(Cyclopropylcarbamoyl)-[1,1′-biphenyl]-4-yl)methyl)-N-(1-(3-isopropylphenyl)ethyl)-2,3-dimethyl-1H-indole-5-carboxamide]",94 nM

# Same assay, conditions: Lanthascreen competitive binding; NA = not active; inc = incomplete curve
row,SMILES,IC50 (nM) Lantha
1,"Cc1c(C)n(Cc2ccc(-c3ccccc3C#N)cc2)c2ccc(C(=O)N[C@@H](C)c3cccc(C(C)C)c3)cc12 [Example 242, (S)-1-((2′-cyano-[1,1′-biphenyl]-4-yl)methyl)-N-(1-(3-isopropylphenyl)ethyl)-2,3-dimethyl-1H-indole-5-carboxamide]",inc

# Same assay, conditions: Lanthascreen competitive binding; NA = not active; inc = incomplete curve; read-out: IC50 (nM) Lantha
row,SMILES,IC50
1,"Cc1c(C)n(Cc2ccc(-c3ccccc3S(=O)(=O)NC(C)(C)C)cc2)c2ccc(C(=O)N[C@@H](C)c3cccc(C(C)C)c3)cc12 [Example 246, (S)-1-((2′-(N-(tert-butyl)sulfamoyl)-[1,1′-biphenyl]-4-yl)methyl)-N-(1-(3-isopropylphenyl)ethyl)-2,3-dimethyl-1H-indole-5-carboxamide]",> 1000 nM
2,"C[C@H](NC(=O)c1ccc2c(ccn2Cc2ccc(-c3ccccc3CO)cc2)c1)c1ccc([N+](=O)[O-])cc1 [Example 54, (S)-1-((2′-(Hydroxymethyl)-[1,1′-biphenyl]-4-yl)methyl)-N-(1-(4-nitrophenyl)ethyl)-1H-indole-5-carboxamide]",> 1000 nM
3,"C[C@H](NC(=O)c1ccc2c(ccn2Cc2ccc(-c3cccc(CN)c3)cc2)c1)c1ccc([N+](=O)[O-])cc1 [Example 53, (S)-1-((3′-(Aminomethyl)-[1,1′-biphenyl]-4-yl)methyl)-N-(1-(4-nitrophenyl)ethyl)-1H-indole-5-carboxamide]",> 1000 nM
4,"Cc1c(C)n(Cc2ccc(-c3ccccc3S(N)(=O)=O)cc2)c2ccc(C(=O)N[C@@H](C)c3cccc(C(C)C)c3)cc12 [Example 247, (S)—N-(1-(3-isopropylphenyl)ethyl)-2,3-dimethyl-1-((2′-sulfamoyl-[1,1′-biphenyl]-4-yl)methyl)-1H-indole-5-carboxamide]",> 1000 nM
5,"C[C@H](NC(=O)c1ccc2c(ccn2Cc2ccc(-c3cccc(N)c3)cc2)c1)c1ccc([N+](=O)[O-])cc1 [Example 52, (S)-1-((3′-Amino-[1,1′-biphenyl]-4-yl)methyl)-N-(1-(4-nitrophenyl)ethyl)-1H-indole-5-carboxamide]",> 1000 nM
6,"CCC(NC(=O)c1ccc2c(ccn2Cc2ccccc2-c2ccccc2C(=O)O)c1)c1ccccc1 (stereo not drawn) [Example 68, 2′-((5-((1-phenylpropyl)carbamoyl)-1H-indol-1-yl)methyl)-[1,1′-biphenyl]-2-carboxylic acid]",> 1000 nM
7,"Cc1c(C)n(Cc2ccc(-c3ccccc3C(=O)O)cc2)c2ccc(C(=O)N(C)Cc3ccccc3)cc12 [compound 3, 4′-((5-(Benzyl(methyl)carbamoyl)-2,3-dimethyl-1H-indol-1-yl)methyl)biphenyl-2-carboxylic acid]",206 nM
